From paper PMC7613515, “Reading and erasing of the phosphonium analogue of trimethyllysine by epigenetic proteins” (Communications Chemistry, 2022)
Entries after “also recorded” stand apart in the source; their conditions may differ.

Experiments:
[1] = molecular target: T1, TAF3PHD (R857–K924) (Mus musculus, UniProt Q5HZG4); assay: ITC, association of histone H3 peptides with TAF3PHD; type: binding, human; details: 25 °C, H3 1-10 peptide, Tris (50 mM), pH 7.5, from 3 to 5 experiments, ± SD
T1 construct: TAF3PHD (R857–K924); made in house; host or cells: E. coli
T1 sequence (Q5HZG4 857-924 limits assumed): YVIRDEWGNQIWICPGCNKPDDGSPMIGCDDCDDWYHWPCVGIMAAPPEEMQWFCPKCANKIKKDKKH
Text: We investigated the thermodynamics of association of the H3KP4me3 peptide with five representative human reader domains containing either a PHD zinc finger or TTD, i.e. KDM5APHD3 (JARID1A-PHD3, residues M1489–V1641)[10], TAF3PHD (R857–K924)[22], BPTFPHD (L2583–N2751)[23], SGF29TTD (R115–K293)[24] and KDM4ATTD (JMJD2A, Q897-P1011)[25], selected on the basis of their preference for binding Ν^ε-trimethyllysine over other (non)methylation marks (Kme0 < Kme1 < Kme2 < Kme3), and their domain and aromatic cage diversity. The recombinant readers were produced in E. coli following reported procedures. Isothermal titration calorimetric (ITC) analyses were used to determine the dissociation constant (Kd), the Gibbs free energy of binding (ΔG°), the enthalpy of binding (ΔH°), and the entropy of binding (ΔS°). […] (Table 1, Fig. 2, Supplementary Fig. 1).
The following purified reader domains: TAF3PHD (R857-K924), KDM5APHD3 (JARID1A, M1489-V1641), BPTFPHD (L2583-N2751), KDM4ATTD (JMJD2A, Q897-P1011) and SGF29TTD (R115-K293) were prepared as reported[10],[22]–[26]. The histone lysine demethylase were produced and purified to high purity via reported procedures KDM3A (JMJD1A, T515-S1317)[41], KDM4AJmjC[39] (JMJD2A, M1-L359), KDM4EJmjC (JMJD2E, M1–Q337)[34] and KDM7B[40] (PHF8, M37-N483 [NP_001171]). KDM5DJmjC was produced using an N-terminal hexa-His tagged KDM4D (KDM4DM1-L358) DNA construct, transformed into BL21(DE3) competent cells for recombinant protein production. Colonies were used to inoculate of LB media (50 mL) containing kanamycin (50 µg·mL^−1) and chloramphenicol (34 µg·mL^−1), which was placed in a 37 °C shaker overnight. The starter culture (10 mL) was used to inoculate TB media (6 × 1 L) containing kanamycin (50 µg·mL^−1) in 2 L baffled shaker flasks. After reaching an of OD600 of ~0.8, the temperature was reduced to 18 °C; at OD600 ~0.9 the cells were induced by the IPTG (0.5 mM) addition. After shaking overnight, the culture was centrifuged (5000 rpm, 10 mins), the media was decanted, and the cell pellet was suspended in Lysis Buffer [HEPES (50 mM), NaCl (500 mM), imidazole (20 mM), glycerol (5%) and TCEP (0.5 mM) in water (pH 7.4)]. The suspension was lysed by passaging through a high-pressure cell breaker (Avestin – EmulsiFlex-C5) for three rounds. The lysate was cleared by centrifugation (60 minutes, 36,000 × g, 4 °C), then loaded onto a Ni NTA gravity column. […]
ITC studies followed a reported procedure. […] Histone peptide titrations were performed with the same reader batches. Solutions of the reader in buffer (25–40 µM) and of the histone H3 peptide (350–600 µM) in buffer were prepared. […] Heats of dilution for histone peptides determined in control experiments were subtracted from the titration binding data. […]

[2] = molecular target: T2, KDM4EJmjC (M1–Q337) (Homo sapiens, UniProt B2RXH2); assay: FDH coupled demethylation assay (formaldehyde release), KDM4EJmjC; type: biochemical; details: KDM4EJmjC 0–10 µM, H3KP9me3 10 µM; n = 3 or 4
T2 construct: We chose human KDM4EJmjC (M1–Q337); made in house
T2 sequence (B2RXH2 1-337): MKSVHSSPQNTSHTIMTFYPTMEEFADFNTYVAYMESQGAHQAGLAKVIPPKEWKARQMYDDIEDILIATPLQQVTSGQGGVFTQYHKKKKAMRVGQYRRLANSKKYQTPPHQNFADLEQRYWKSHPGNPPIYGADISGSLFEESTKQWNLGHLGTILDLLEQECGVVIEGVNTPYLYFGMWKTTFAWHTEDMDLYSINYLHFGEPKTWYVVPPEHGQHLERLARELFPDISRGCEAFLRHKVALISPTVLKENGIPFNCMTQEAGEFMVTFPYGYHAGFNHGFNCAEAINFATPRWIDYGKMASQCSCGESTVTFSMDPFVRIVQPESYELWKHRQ
Method: To test whether formaldehyde is generated by H3KP9me3 demethylation, a formaldehyde dehydrogenase (FDH) coupled assay was employed (Supplementary Fig. 19a)[34],[37]. […]
measurement of the formation of NADH. a FDH enzyme coupled to KDM4E JmjC demethylation assay measuring the levels of […]
(0–50 µM). c Michaelis-Menten analysis. Standard conditions: FDH (1.0 µM), Asc (1.0 mM), Fe(II) (50 µM), 2OG (200 µM) and NAD+ (250 µM). Errors are standard deviations of the mean (n = 2 or 3).
(1 picture or pasted object on this page, not shown here)
Supplementary Fig. 20 FDH activity assay of KDM4E JmjC (0–10 µM) catalysed demethylation of H3K P9me 3 (10 µM) […]
Standard conditions: FDH (1.0 µM), Ascorbate (1.0 mM), Fe(II) (50 µM), 2OG (200 µM) and NAD + (250 µM). Errors are standard deviations of the mean (n = 3 or 4).

| Compound | -TΔS° [1] [kcal/mol] | ΔG° [1] [kcal/mol] | ΔH° [1] [kcal/mol] | formaldehyde release [2] |
| --- | --- | --- | --- | --- |
| C[C@H](N)C(=O)N[C@@H](CCCNC(=N)N)C(=O)N[C@H](C(=O)N[C@@H](CCCC[P+](C)(C)C)C(=O)N[C@@H](CCC(N)=O)C(=O)N[C@H](C(=O)N[C@@H](C)C(=O)N[C@@H](CCCNC(=N)N)C(=O)N[C@@H](CCCCN)C(=O)N[C@@H](CO)C(N)=O)[C@@H](C)O)[C@@H](C)O [H3KP4me3] | 1.1 ± 0.1 | -10.0 ± 0.1 | -11.1 ± 0.1 |  |
| ARTKQTAR(KPme3)STGGKA [H3KP9me3, histone H3 residues 1–15 with trimethylphosphonium lysine analogue at position 9] |  |  |  | in an enzyme dependent manner that releases formaldehyde; also recorded: time-dependent increase in formaldehyde |
